According to patent US6911445B2, “Antidepressant cycloalkylamine derivatives of heterocycle-fused benzodioxans” (Wyeth, priority 2002, dated 2005):

Tests used:
[1] = target: T1, cloned human 5HT1A receptors (Homo sapiens, UniProt P08908); experiment: 35S-GTPγS binding assay, membranes containing cloned human 5HT1A receptors; format: biochemical; conditions: for IC50: antagonist potency, reversal of the standard agonist 8-OH-DPAT, read-out: 5HT1A Function IC50; for 5HT1A Function (Imax): maximum inhibitory effect, value in parentheses
T1 construct: expressed in transfected cells
T1 sequence (P08908 1-422): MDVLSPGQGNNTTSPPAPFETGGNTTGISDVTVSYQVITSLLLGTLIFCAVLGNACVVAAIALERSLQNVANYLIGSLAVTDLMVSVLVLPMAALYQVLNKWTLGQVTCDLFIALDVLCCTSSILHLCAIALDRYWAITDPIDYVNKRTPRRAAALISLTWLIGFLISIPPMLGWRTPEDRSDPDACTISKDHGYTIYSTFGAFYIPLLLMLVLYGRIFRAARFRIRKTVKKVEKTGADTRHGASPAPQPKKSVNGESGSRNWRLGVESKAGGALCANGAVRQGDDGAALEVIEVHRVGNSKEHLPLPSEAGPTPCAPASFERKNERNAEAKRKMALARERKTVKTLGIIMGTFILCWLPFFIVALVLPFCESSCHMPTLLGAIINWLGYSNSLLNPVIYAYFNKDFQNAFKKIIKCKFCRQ
Experimental: Antagonist activity at 5HT1A receptors was established by using a ^35S-GTPγS binding assay similar to that used by Lazareno and Birdsall (Br. J. Pharmacol. 109:1120, 1993), in which the test compound's ability to affect the binding of ^35S-GTPγS to membranes containing cloned human 5HT1A receptors was determined. Agonists produce an increase in binding whereas antagonists produce no increase but rather reverse the effects of the standard agonist 8-OH-DPAT. The test compound's maximum inhibitory effect is represented as the Imax, while its potency is defined by the IC50.

serotonin transporter = target: T2, serotonin transporter (Rattus norvegicus, UniProt P31652); experiment: Displacement of 3H-paroxetine from male rat frontal cortical membranes (serotonin transporter affinity); format: binding; conditions: read-out: 5-HT Transporter Affinity Ki
T2 construct: displace ^3H-paroxetine from male rat frontal cortical membranes; from tissue; host or cells: male rat frontal cortex membranes

human 5HT1A receptors = target: T3, human 5HT1A receptors (Homo sapiens, UniProt P08908); experiment: Displacement of [3H] 8-OH-DPAT from 5HT1A receptor in stably transfected CHO cells; format: binding; conditions: CHO cells with human 5HT1A receptors, read-out: 5HT1A Receptor Affinity Ki
T3 construct: expressed in transfected cells; host or cells: CHO cells
T3 sequence (P08908 1-422): T1 sequence (P08908 1-422)
Description: High affinity for the serotonin 5HT1A receptor was established by testing the claimed compound's ability to displace [^3H] 8-OH-DPAT (dipropylamino-tetralin) from the 5HT1A serotonin receptor following a modification of the procedure of Hall, et al., J. Neurochem. 44, 1685 (1985), which utilizes CHO cells stably transfected with human 5HT1A receptors.

T2 sequence (P31652 whole entry): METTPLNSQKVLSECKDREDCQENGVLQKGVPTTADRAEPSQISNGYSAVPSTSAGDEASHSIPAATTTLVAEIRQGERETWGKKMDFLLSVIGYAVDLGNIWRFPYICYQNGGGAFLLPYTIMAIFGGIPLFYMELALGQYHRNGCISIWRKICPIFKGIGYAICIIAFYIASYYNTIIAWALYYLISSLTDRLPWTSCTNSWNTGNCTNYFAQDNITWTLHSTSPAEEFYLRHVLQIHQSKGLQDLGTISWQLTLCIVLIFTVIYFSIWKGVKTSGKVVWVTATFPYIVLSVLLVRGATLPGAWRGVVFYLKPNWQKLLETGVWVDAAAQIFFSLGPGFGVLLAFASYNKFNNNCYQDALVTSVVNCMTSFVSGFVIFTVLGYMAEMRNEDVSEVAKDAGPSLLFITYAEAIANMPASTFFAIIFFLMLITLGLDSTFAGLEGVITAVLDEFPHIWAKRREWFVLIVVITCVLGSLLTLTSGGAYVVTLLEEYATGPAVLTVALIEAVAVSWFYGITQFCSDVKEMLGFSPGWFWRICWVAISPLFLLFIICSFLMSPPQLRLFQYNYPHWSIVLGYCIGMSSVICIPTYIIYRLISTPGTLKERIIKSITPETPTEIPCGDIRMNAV

Row | Ki (serotonin transporter) [nM] | Ki (human 5HT1A receptors) [nM] | IC50 [1] [nM] | 5HT1A Function (Imax) [1] [%] | SMILES | EC50 ([1]; given as EC50, increase in 35S-GTPγS binding (agonist), read-out: 5HT1A Function EC50) [nM] | Emax ([1]; given as Emax, agonist effect, read-out: 5HT1A Function Emax) [%]
1 | 0.84 | 5.01 | 242 | 100 | Cc1ccc2c3c(ccc2n1)OC[C@H](CN(C)[C@H]1CC[C@@H](c2c[nH]c4ccc(F)cc24)C1)O3 (mixture of isomers) [Example 9, N-[(cis)-3-(5-fluoro-1H-indol-3-yl)cyclopentyl]-N-methyl-N-{[(2S)-8-methyl-2,3-dihydro[1,4]dioxino[2,3-f]quinolin-2-yl]methyl}amine] |  | 
2 | 0.33 | 2.03 | 34 | 97 | Cc1ccc2c3c(ccc2n1)OCC(CNC1CCC(c2c[nH]c4ccc(F)cc24)C1)O3 (single isomer, unassigned) [Example 3-Isomer B, N-[(1S*,3R*)-3-(5-fluoro-1H-indol-3-yl)cyclopentyl]-N-{[(2S)-8-methyl-2,3-dihydror[1,4]dioxino[2,3-f]quinolin-2-yl]methyl}amine] |  | 
3 | 0.54 | 7.72 | 60 | 56 | Cc1ccc2c3c(ccc2n1)OC[C@H](CN[C@H]1CC[C@H](c2c[nH]c4ccc(F)cc24)C1)O3 (single isomer, unassigned) [Example 4-Isomer A, N-[(1S*,3S*)-3-(5-fluoro-1H-indol-3-yl)cyclopentyl]-N-{[(2S)-8-methyl-2,3-dihydro[1,4]dioxino[2,3-f]quinolin-2-yl]methyl}amine] |  | 

Further lines, the compound ahead of its results:

Row | SMILES | Ki (serotonin transporter) [nM] | Ki (human 5HT1A receptors) [nM] | IC50 [1] [nM] | 5HT1A Function (Imax) [1] [%] | EC50 ([1]; given as EC50, increase in 35S-GTPγS binding (agonist), read-out: 5HT1A Function EC50) [nM] | Emax ([1]; given as Emax, agonist effect, read-out: 5HT1A Function Emax) [%]
4 | Cc1ccc2c3c(ccc2n1)OC[C@H](CN[C@H]1CC[C@@H](c2c[nH]c4ccccc24)C1)O3 (mixture of isomers) [Example 1, N-[(cis)-3-(1H-indol-3-yl)cyclopentyl]-N-{[(2S)-8-methyl-2,3-dihydro[1,4]dioxino[2,3-f]quinolin-2-yl]methyl}amine] | 1.25 | 2.56 |  |  | 33 | 38
5 | Cc1ccc2c3c(ccc2n1)OC[C@H](CN[C@H]1CC[C@@H](c2c[nH]c4ccc(F)cc24)C1)O3 (mixture of isomers) [Example 3, N-[(cis)-3-(5-fluoro-1H-indol-3-yl)cyclopentyl]-N-{[(2S)-8-methyl-2,3-dihydro[1,4]dioxino[2,3-f]quinolin-2-yl]methyl}amine] | 0.93 | 4.73 | 83 | 100 |  | 
6 | Cc1ccc2c3c(ccc2n1)OC[C@H](CN(C)[C@@H]1CC[C@H](c2c[nH]c4ccc(F)cc24)C1)O3 (relative stereo) [Example 13, N-[(1R*,3S*)-3-(5-fluoro-1H-indol-3-yl)cyclopentyl]-N-methyl-N-{[(2S)-8-methyl-2,3-dihydro[1,4]dioxino[2,3-f]quinolin-2-yl]methyl}amine] | 5.45 | 18.8 | 494 | 100 |  | 
7 | Cc1ccc2c3c(ccc2n1)OC[C@H](CN[C@@H]1CC[C@H](c2c[nH]c4ccc(F)cc24)C1)O3 (single isomer, unassigned) [Example 3-Isomer A, N-[(1R*,3S*)-3-(5-fluoro-1H-indol-3-yl)cyclopentyl]-N-{[(2S)-8-methyl-2,3-dihydro[1,4]dioxino[2,3-f]quinolin-2-yl]methyl}amine] | 0.38 | 8.73 | 69 | 82 |  | 
8 | Cc1ccc2c3c(ccc2n1)OCC(CNC1CCC(c2c[nH]c4ccccc24)C1)O3 [Example 2, N-[(trans)-3-(1H-indol-3-yl)cyclopentyl]-N-{[(2S)-8-methyl-2,3-dihydro[1,4]dioxino[2,3-f]quinoli-2-yl]methyl}amine] | 1.69 | 12.8 |  |  |  | 
9 | Cc1ccc2c3c(ccc2n1)OC[C@H](CN[C@H]1CC[C@@H](c2c[nH]c4ccc(F)cc42)CC1)O3 [Example 7, (cis)-N-[4-(5-fluoro-1H-indol-3-yl)cyclohexyl]-N-{[(2S)-8-methyl-2,3-dihydro[1,4]dioxino[2,3-f]quinolin-2-yl]methyl}amine] | 19 | 51.7 |  |  |  | 
